Assay results as given in patent publication US20230265116A1, “DEGRADATION OF (EGFR) BY CONJUGATION OF EGFR INHIBITORS WITH E3 LIGASE LIGAND AND METHODS OF USE” (BEIGENE, LTD., priority 2020, published 2023).
Where two headings read alike, the source gives them in different places.

What was measured:
[1] = tested on: EGFR Del19/T790M/C797S (H1975-clone #28); assay: EGFR degradation HTRF assay, H1975-clone #28 DTC cells; assay type: cell-based
Description: H1975-clone #28(Del19/T790M/C797S) and H1975-clone #23(Del19/C797S). EGFR-Del19/T790M/C797S and EGFR-Del19/C797S were stably expressed in H1975 cell lines by lentivirus-mediated over-expression, respectively. The EGFR over-expressed cells then underwent gene knockout, in which the EGFR targeting sgRNA was designed to only target the endogenous EGFR copies and preserve the exogenous EGFR copies. Followed by the gene knockout, the edited H1975 cells were seeded in 96 well plates at the concentration of 1 cell/well, cultured for about 2 weeks to allow single clones formation. The formed clones were screened by DNA sequencing and whole exon sequencing analysis for the desired edition. H1975-clone #28 and H1975-clone #23 were finally confirmed as homozygous Del19/T790M/C797S EGFR and Del19/C797S EGFR clones, respectively.
(§1) BaF3 WT(wild type), BaF3-LTC(L858R/T790M/C797S) and BaF3-DTC(Del19/T790M/C797S) cells are treated with compounds diluted in 0.2% DMSO cell culture medium and incubate for 16h, 37° C., 5% CO2, H1975-#36, H1975-#28, H1975-#23 and HCC827 cells are treated with compounds diluted in 0.2% DMSO cell culture medium on day 2, incubate for 16h, 37° C., 5% CO2.the final concentriation of compounds in all assay is start with 10 uM, 5-fold dilution, total 8 doses were included.
(§2) After 16h treatment, add HTRF lysis buffer to each well; seal the plate and incubate 1 hour at room temperature on a plate shaker; Once the cells are lysed, 16 μL of cell lysate are transferred to a PE 384-well HTRF detection plate; 4 μL of pre-mixed HTRF antibodies are added to each well; Cover the plate with a plate sealer, spin 1000 rpm for 1 min, Incubate overnight at room temperature; Read on BMG PheraStar with HTRF protocol (337 nm-665 nm-620 nm).
(§3) The inhibition (degradation) percentage of the compound was calculated by the following equation: Inhibition percentage of Compound=100-100×(Signal-low control)/(High control-low control), wherein signal=each test compound group
(§4) High control=Cell group with added DMSO and without compound, indicating microplate readings without EGFR degradation;
(§5) Dmax is the maximum percentage of inhibition (degradation).
(§6) The IC50 (DC50) value of a compound can be obtained by fitting the following equation
(§7) Y=Bottom+(TOP−Bottom)/(1+((IC50/X)^hillslope))
(§8) Wherein, X and Y are known values, and IC50, Hillslope, Top and Bottom are the parameters obtained by fitting with software. Y is the inhibition percentage (calculated from the equation), X is the concentration of the compound; IC50 is the concentration of the compound when the 50% inhibition is reached. The smaller the IC50 value is, the stronger the inhibitory ability of the compound is. Vice versa, the higher the IC50 value is, the weaker the inhibitory ability of the compound is; Hillslope represents the slope of the fitted curve, generally around 1*; Bottom represents the minimum value of the curve obtained by data fitting, which is generally 0%±20%; Top represents the maximum value of the curve obtained by data fitting, which is generally 100%±20%. The experimental data were fitted by calculating and analyzing with Dotmatics data analysis software.

[2] = target: T1, EGFR L858R/T790M/C797S (BaF3-LTC cells) (Homo sapiens, UniProt P00533, C797S/L858R/T790M); assay: EGFR degradation HTRF assay, BaF3-LTC cells; assay type: cell-based
T1 construct: expressed in transfected cells; host or cells: BaF3
Description: as §1, §2, §3, §4, §5, §6, §7, §8

[3] = H1975 # 28 DTC cells; EGFR degradation, IC50 (DC50) from curve fit; read-out: DC50(nM) H1975 # 28 DTC
[4] = H1975 # 28 DTC cells; maximum percentage of inhibition (degradation)
[5] = BaF3-LTC cells; EGFR degradation, IC50 (DC50) from curve fit; read-out: DC50(nM) BaF3-LTC
[6] = BaF3-LTC cells; maximum percentage of inhibition (degradation); read-out: Dmax (%) BaF3-LTC

T1 sequence (P00533 25-1210 T790M/C797S/L858R): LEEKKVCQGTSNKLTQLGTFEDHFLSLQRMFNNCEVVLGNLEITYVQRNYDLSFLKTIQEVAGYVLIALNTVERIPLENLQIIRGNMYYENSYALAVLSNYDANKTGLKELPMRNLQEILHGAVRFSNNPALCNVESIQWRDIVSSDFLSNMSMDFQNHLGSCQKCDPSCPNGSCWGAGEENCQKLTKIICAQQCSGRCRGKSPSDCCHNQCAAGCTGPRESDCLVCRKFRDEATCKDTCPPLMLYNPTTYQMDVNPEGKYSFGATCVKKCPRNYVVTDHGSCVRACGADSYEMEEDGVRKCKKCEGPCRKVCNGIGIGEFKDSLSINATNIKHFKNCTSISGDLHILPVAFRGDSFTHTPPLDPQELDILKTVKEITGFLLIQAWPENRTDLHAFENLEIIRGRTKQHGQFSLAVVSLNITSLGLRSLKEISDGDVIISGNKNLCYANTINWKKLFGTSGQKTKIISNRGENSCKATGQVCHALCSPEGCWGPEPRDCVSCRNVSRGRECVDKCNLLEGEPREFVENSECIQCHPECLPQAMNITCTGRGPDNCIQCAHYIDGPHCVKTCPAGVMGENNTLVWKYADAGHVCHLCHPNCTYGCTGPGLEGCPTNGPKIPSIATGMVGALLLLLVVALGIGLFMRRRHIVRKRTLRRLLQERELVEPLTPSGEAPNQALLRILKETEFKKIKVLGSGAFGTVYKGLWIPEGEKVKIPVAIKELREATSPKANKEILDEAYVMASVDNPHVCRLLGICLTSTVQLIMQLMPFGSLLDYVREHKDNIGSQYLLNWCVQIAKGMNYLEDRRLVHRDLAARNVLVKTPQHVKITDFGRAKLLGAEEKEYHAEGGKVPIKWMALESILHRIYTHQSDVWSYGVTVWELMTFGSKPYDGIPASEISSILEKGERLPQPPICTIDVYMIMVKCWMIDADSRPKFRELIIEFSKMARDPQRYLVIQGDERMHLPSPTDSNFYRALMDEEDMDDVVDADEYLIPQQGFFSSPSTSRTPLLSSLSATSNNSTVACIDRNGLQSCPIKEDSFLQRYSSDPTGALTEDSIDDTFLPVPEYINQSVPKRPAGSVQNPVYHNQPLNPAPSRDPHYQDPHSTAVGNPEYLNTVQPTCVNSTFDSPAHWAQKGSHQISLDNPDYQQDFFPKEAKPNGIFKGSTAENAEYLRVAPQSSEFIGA

SMILES	DC50 [1, 3] [nM]	DC50 [2, 5] [nM]	Dmax [2, 6] [%]	Dmax (%) H1975 # 28 DTC [1, 4] [%]	DC50 ([1]; read-out: DC50(nM) H1975 # 28 DTC; H1975 # 28 DTC cells; EGFR degradation, IC50 (DC50) from curve fit) [nM]	DC50 ([2]; read-out: DC50(nM) BaF3-LTC; BaF3-LTC cells; EGFR degradation, IC50 (DC50) from curve fit) [nM]	Dmax ([2]; read-out: Dmax (%) BaF3-LTC, BaF3-LTC cells; maximum percentage of inhibition (degradation)) [%]
CCc1cc(Nc2ncc(Br)c(Nc3ccc4nc(NC5CC5)ccc4c3P(C)(C)=O)n2)c(OC)cc1N1CCC(N2CCN(CCc3ccc4c(c3)oc(=O)n4C3CCC(=O)NC3=O)CC2)CC1 (stereo not shown) [Example 633, 3-(6-(2-(4-(1-(4-((5-bromo-4-((2-(cyclopropylamino)-5-(dimethylphosphoryl)quinolin-6-yl)amino)pyrimidin-2-yl)amino)-2-ethyl-5-methoxyphenyl)piperidin-4-yl)piperazin-1-yl)ethyl)-2-oxobenzo[d]oxazol-3(2H)-yl)piperidine-2,6-dione]	0.737	5.12	91.7	70.09			
CCOc1cc(N2CCC(N3CCN(CC4CN(c5cccc6c5oc(=O)n6C5CCC(=O)NC5=O)C4)CC3)CC2)c(CC)cc1Nc1ncc(Br)c(Nc2cc(F)c3nc(CC)ccc3c2P(C)(C)=O)n1 (stereo not shown) [Example 562, 3-(7-(3-((4-(1-(4-((5-bromo-4-((5-(dimethylphosphoryl)-2-ethyl-8-fluoroquinolin-6-yl)amino)pyrimidin-2-yl)amino)-5-ethoxy-2-ethylphenyl)piperidin-4-yl)piperazin-1-yl)methyl)azetidin-1-yl)-2-oxobenzo[d]oxazol-3(2H)-yl)piperidine-2,6-dione]	1.54	7.47	90.2	77.73			
CCOc1cc(N2CCC(N3CCN(CCc4cc(Cl)cc5c4oc(=O)n5C4CCC(=O)NC4=O)CC3)CC2)c(CC)cc1Nc1ncc(Br)c(Nc2ccc3c(=O)n(CC)ncc3c2P(C)(C)=O)n1 (stereo not shown) [Example 599, 3-(7-(2-(4-(1-(4-((5-bromo-4-((5-(dimethylphosphoryl)-2-ethyl-1-oxo-1,2-dihydrophthalazin-6-yl)amino)pyrimidin-2-yl)amino)-5-ethoxy-2-ethylphenyl)piperidin-4-yl)piperazin-1-yl)ethyl)-5-chloro-2-oxobenzo[d]oxazol-3(2H)-yl)piperidine-2,6-dione]	1.91	25	73.9	80.53			
CCc1cc(Nc2ncc(Br)c(Nc3ccc4cc(C)ncc4c3P(C)(C)=O)n2)c(OC)cc1N1CCC(N2CCN(C(=O)[C@@H]3CCN(c4cc(F)c([C@H]5CCC(=O)NC5=O)c(F)c4)C3)CC2)CC1 [Example 586, (R)-3-(4-((R)-3-(4-(1-(4-((5-bromo-4-((8-(dimethylphosphoryl)-3-methylisoquinolin-7-yl)amino)pyrimidin-2-yl)amino)-2-ethyl-5-methoxyphenyl)piperidin-4-yl)piperazine-1-carbonyl)pyrrolidin-1-yl)-2,6-difluorophenyl)piperidine-2,6-dione]	0.958	3.85	94.1	84.73			
CCc1ccc2c(P(C)(C)=O)c(Nc3nc(Nc4cc(CC)c(N5CCC(N6CCN(C(=O)C7CN(c8cc(F)cc9c8oc(=O)n9C8CCC(=O)NC8=O)C7)CC6)CC5)cc4OC)ncc3Br)ccc2n1 (stereo not shown) [Example 447, 3-(7-(3-(4-(1-(4-((5-bromo-4-((5-(dimethylphosphoryl)-2-ethylquinolin-6-yl)amino)pyrimidin-2-yl)amino)-2-ethyl-5-methoxyphenyl)piperidin-4-yl)piperazine-1-carbonyl)azetidin-1-yl)-5-fluoro-2-oxobenzo[d]oxazol-3(2H)-yl)piperidine-2,6-dione]				77.96	0.526	2.27	83.2

Now from value to compound, other results behind:

DC50 [1, 3] [nM]	DC50 [2, 5] [nM]	Dmax [2, 6] [%]	SMILES	Dmax (%) H1975 # 28 DTC [1, 4] [%]	DC50 ([1]; read-out: DC50(nM) H1975 # 28 DTC; H1975 # 28 DTC cells; EGFR degradation, IC50 (DC50) from curve fit) [nM]	DC50 ([2]; read-out: DC50(nM) BaF3-LTC; BaF3-LTC cells; EGFR degradation, IC50 (DC50) from curve fit) [nM]	Dmax ([2]; read-out: Dmax (%) BaF3-LTC, BaF3-LTC cells; maximum percentage of inhibition (degradation)) [%]
0.641	18	87.4	CCOc1cc(N2CCC(N3CCN(CCCOc4cc(F)c([C@H]5CCC(=O)NC5=O)c(F)c4)CC3)CC2)c(CC)cc1Nc1ncc(Br)c(Nc2ccc3c(=O)n(CC)ncc3c2P(C)(C)=O)n1 [Example 735, (R)-3-(4-(3-(4-(1-(4-((5-bromo-4-((5-(dimethylphosphoryl)-2-ethyl-1-oxo-1,2-dihydrophthalazin-6-yl)amino)pyrimidin-2-yl)amino)-5-ethoxy-2-ethylphenyl)piperidin-4-yl)piperazin-1-yl)propoxy)-2,6-difluorophenyl)piperidine-2,6-dione]	80.09			
0.944	3.72		CCOc1cc(N2CCC(N3CCN(CCc4cccc5c4n(CC)c(=O)n5C4CCC(=O)NC4=O)CC3)CC2)c(CC)cc1Nc1ncc(Br)c(Nc2ccc3nc(CC)ncc3c2P(C)(C)=O)n1 (stereo not shown) [Example 737, 3-(4-(2-(4-(1-(4-((5-bromo-4-((5-(dimethylphosphoryl)-2-ethylquinazolin-6-yl)amino)pyrimidin-2-yl)amino)-5-ethoxy-2-ethylphenyl)piperidin-4-yl)piperazin-1-yl)ethyl)-3-ethyl-2-oxo-2,3-dihydro-1H-benzo[d]imidazol-1-yl)piperidine-2,6-dione]	78.21			
0.717	4.11		CCc1cc(Nc2ncc(Br)c(Nc3ccc4nc(C)ncc4c3P(C)(C)=O)n2)c(OC)cc1N1CCC(N2CCN(C(=O)[C@H]3CN(c4cc(F)c([C@H]5CCC(=O)NC5=O)c(F)c4)CC3(C)C)CC2)CC1 [Example 740, (R)-3-(4-((R)-4-(4-(1-(4-((5-bromo-4-((5-(dimethylphosphoryl)-2-methylquinazolin-6-yl)amino)pyrimidin-2-yl)amino)-2-ethyl-5-methoxyphenyl)piperidin-4-yl)piperazine-1-carbonyl)-3,3-dimethylpyrrolidin-1-yl)-2,6-difluorophenyl)piperidine-2,6-dione]	87.27			
1.13	5.59		COc1cc(N2CCC(N3CCN(C(=O)[C@H]4CN(c5cc(F)c([C@H]6CCC(=O)NC6=O)c(F)c5)CC4(C)C)CC3)CC2)c(C)cc1Nc1ncc(Br)c(Nc2ccc3nc(C)c(F)cc3c2P(C)(C)=O)n1 [Example 729, (R)-3-(4-((R)-4-(4-(1-(4-((5-bromo-4-((5-(dimethylphosphoryl)-3-fluoro-2-methylquinolin-6-yl)amino)pyrimidin-2-yl)amino)-5-methoxy-2-methylphenyl)piperidin-4-yl)piperazine-1-carbonyl)-3,3-dimethylpyrrolidin-1-yl)-2,6-difluorophenyl)piperidine-2,6-dione]	88.94			
1.39	5.8	94.9	CCOc1cc(N2CCC(N3CCN(C(=O)[C@@H]4CCN(c5cc(F)c([C@H]6CCC(=O)NC6=O)c(F)c5)C4)CC3)CC2)c(CC)cc1Nc1ncc(Br)c(Nc2cc(F)c3ncccc3c2P(C)(C)=O)n1 [Example 678, (R)-3-(4-((R)-3-(4-(1-(4-((5-bromo-4-((5-(dimethylphosphoryl)-8-fluoroquinolin-6-yl)amino)pyrimidin-2-yl)amino)-5-ethoxy-2-ethylphenyl)piperidin-4-yl)piperazine-1-carbonyl)pyrrolidin-1-yl)-2,6-difluorophenyl)piperidine-2,6-dione]	81.53			
